Earlier results, collected in US20210059962A1, “STIMULATION OF T REGULATORY CELLS BY CANNABIDIOL AS A MEANS OF TREATING ARTHRITIS AND AUTOIMMUNITY” (priority 2019, published 2021).

SMILES	IL-10 production (HUT-78 T-cells)	IL-8 production (eosinophilic cells)	MIP-lbeta production (eosinophilic cells)	MIP-lbeta production (HTLV-1 positive B-cells)	constitutive production of IL-8 (NK cells; constitutive)	constitutive production of MIP-lalpha (NK cells; constitutive)	constitutive production of MIP-lbeta (NK cells; constitutive)	constitutive production of RANTES (NK cells; constitutive)	phorbol ester stimulated production of GM-CSF (NK cells; phorbol ester stimulated)	phorbol ester stimulated production of IFN-gamma (NK cells; phorbol ester stimulated)	phorbol ester stimulated production of TNF-alpha (NK cells; phorbol ester stimulated)	IL-8 production (B-cells)	MIP-1alpha production (B-cells)	MIP-1beta production (B-cells)
C=C(C)[C@@H]1CCC(C)=C[C@H]1c1c(O)cc(CCCCC)cc1O [CBD, 2-[3-methyl-6-(1-methylethenyl)-2-cyclohexen-1-yl]-5-pentyl-1,3-benzenedi-of]	strongly inhibited													
CCCCCc1cc(O)c2c(c1)OC(C)(C)[C@@H]1CCC(C)=C[C@@H]21 [THC, delta9 tetrahydrocannabinol]	strongly inhibited	doubled	tripled	inhibited	decreased	decreased	decreased	decreased	decreased	decreased	decreased	tripled	tripled	tripled
